We go through one compound from patent US20220249479A1, “MODIFIED RELEASE FORMULATION OF A PYRIMIDINYLAMINO-PYRAZOLE COMPOUND, AND METHODS OF TREATMENT” (DENALI THERAPEUTICS INC., priority 2019, published 2022).

A short description of this series: Multiple-dose PK of API-in-capsule formulation BID for 10 days in healthy human subjects. Type of series: in vivo. Here is the method:
The mean CSF to unbound plasma ratio was about 1.0. Data shown is from 25, 80, and100 mg BID multiple dose cohorts.
Formula I compound was administered to healthy young human subjects as an API-in- capsule formulation at doses of 25 mg, 40 mg, 80 mg and 100 mg BID, and to healthy elder subjects at 80 mg BID. Formula I compound concentrations were determined on Day 1 and 10 and at trough on selected day during the 10 days of administration. […] The terminal half-life, and plasma concentrations and pS935 inhibition at trough (minima) are consistent with twice-daily administration as an efficacious regimen.
[…] variability in the ratio was seen because of the parallel (non-crossover) nature of the study design. […] Physiologically-based PK modelling, was used to predict the Cmax/Cmin ratio for MUPS formulations contain various amounts of KOLLICOAT® polymer.

By half-life is commonly meant the time needed for the level to fall by half in the phase considered.

With `CNc1nc(Nc2cn(C(C)(C)C#N)nc2C)ncc1C(F)(F)F` [Formula I compound, 2-methyl-2-(3-methyl-4-(4-(methylamino)-5-(trifluoromethyl)pyrimidin-2-ylamino)-1H-pyrazol-1-yl)propanenitrile], the “plasma Cmax and AUC versus dose” value (25 to 100 mg BID dose range) was “dose-proportional”. Also, the Kp at 10 day (human, CSF / unbound plasma, oral, healthy young and healthy elderly, Day 10, 25, 80 and 100 mg BID immediate release capsule, read-out: mean CSF to unbound plasma ratio) was approximately 1. Further, the half-life (human, plasma, oral, postdose Day 10, 25-100 mg BID, read-out: terminal half-life in plasma) fell in the range of 14 to 26 h.
